# pEC50: −log10 of the molar value. Starred links: 1 amine or outer side, 2 acyl side, 3 side chain; linkers in the order of their positions; H or OH if unused. Non-standard residues stand in square brackets, D forms with d. Residues, ends and D or L forms follow the SMILES beside them. *: point of attachment. X6 = O=C([C@H](Cc1ccc(-n2cccn2)cc1)N[*:1])[*:2]; X16 = O=C(CCC(=O)[*:2])[C@H](Cc1ccccc1)N[*:1]; dPhe(2,4-Cl2) = N[C@H](Cc1ccc(Cl)cc1Cl)C(=O)O; PEG8 = NCCOCCOCCOCCOCCOCCOCCOCCOCCC(=O)O; X12 = O=C([C@@H]1Cc2ccccc2N1[*:1])[*:2]; dAla(2-furyl) = N[C@H](Cc1ccco1)C(=O)O; Arg(Me) = CNC(=N)NCCC[C@H](N)C(=O)O; Palmitoyl = CCCCCCCCCCCCCCCC(=O)*; Hyp = O=C(O)[C@@H]1C[C@@H](O)CN1; azaPro = O=C(N1CCCN1[*:1])[*:2]; Pip = O=C(O)[C@@H]1CCCCN1; dPip = O=C(O)[C@H]1CCCCN1; Ac6c = NC1(C(=O)O)CCCCC1; Aze = O=C(O)[C@@H]1CCN1; azaGly = NNC(=O)O
# Target: T1, human kiss1 receptor (GPR54) (Homo sapiens, UniProt Q969F8)
# T1 construct: host or cells: NFAT-bla CHO-K1 cells (Chinese hamster ovary), purchased recombinant cell line
# Experiment: Kiss1 receptor (GPR54) binding activity of agonists, FRET detection in NFAT-bla CHO-K1 cells
# Type: cell-based
# Details: GPR54; measured according to the method of effect Embodiment 1; preliminary data; read-out: Preliminary measurement data (GPR54) EC50
# T1 sequence (Q969F8 whole entry): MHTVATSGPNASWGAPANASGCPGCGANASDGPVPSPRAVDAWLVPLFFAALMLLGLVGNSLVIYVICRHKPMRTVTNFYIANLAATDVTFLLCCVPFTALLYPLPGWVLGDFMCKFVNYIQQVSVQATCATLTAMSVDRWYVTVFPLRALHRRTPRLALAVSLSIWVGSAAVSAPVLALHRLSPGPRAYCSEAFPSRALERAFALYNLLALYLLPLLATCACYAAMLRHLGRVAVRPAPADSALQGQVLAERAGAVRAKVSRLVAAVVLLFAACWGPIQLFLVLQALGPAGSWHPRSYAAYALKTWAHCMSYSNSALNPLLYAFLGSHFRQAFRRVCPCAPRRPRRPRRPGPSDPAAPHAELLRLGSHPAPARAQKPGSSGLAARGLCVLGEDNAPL
row,Structure (SMILES),pEC50
1,"CCCCCCCCCCCCCCCC(=O)NCCOCCOCCOCCOCCOCCOCCOCCOCCC(=O)NCC(=O)NCC(=O)N[C@H](Cc1ccc(O)cc1)C(=O)N1C[C@H](O)C[C@H]1C(=O)N[C@@H](CC(N)=O)C(=O)N[C@H](C(=O)N[C@@H](Cc1ccccc1)C(=O)N1CC[C@H]1C(=O)N[C@@H](CC(C)C)C(=O)N[C@@H](CCCNC(=N)NC)C(=O)N[C@@H](Cc1c[nH]c2ccccc12)C(N)=O)[C@@H](C)O [YA-287, Palm-PEG 8-Gly-Gly-D-Tyr-Hyp-Asn-Thr-Phe-Aze-Leu-Arg(Me)-Trp-NH2] ({Palmitoyl-PEG8}-GG[dY][Hyp]NTF[Aze]L[Arg(Me)]W-NH2)",10.42
2,"CNC(=N)NCCC[C@H](NC(=O)[C@H](CC(C)C)NC(=O)CCC(=O)[C@H](Cc1ccccc1)NC(=O)[C@@H](NC(=O)[C@H](CC(N)=O)NC(=O)[C@@H]1C[C@@H](O)CN1C(=O)[C@@H](Cc1ccc(O)cc1)NC(C)=O)[C@@H](C)O)C(=O)N[C@@H](Cc1c[nH]c2ccccc12)C(N)=O [YA-274, M10 [Ac, D-Tyr45, Hyp46, des47, Thr49, (—CH2CH2CO—)51, Arg(Me)53, Trp54]] (Ac-[dY][Hyp]NT[X16]L[Arg(Me)]W-NH2; C-terminus assumed)",10.32
3,"CNC(=N)NCCC[C@H](NC(=O)C(CC(C)C)C(=S)NCNC(=O)[C@H](Cc1ccccc1)NC(=O)[C@@H](NC(=O)[C@H](CC(N)=O)NC(=O)[C@@H]1C[C@@H](O)CN1C(=O)[C@@H](Cc1ccc(O)cc1)NC(C)=O)[C@@H](C)O)C(=O)N[C@@H](Cc1c[nH]c2ccccc12)C(N)=O (single isomer, unassigned) [YA-254, Ac-(D-Tyr)-Hyp-Asn-Thr-Phe-ψ(NHCS)Gly-Leu-Arg(Me)-Trp-NH2]",10.52
4,"CNC(=N)NCCC[C@H](NC(=O)[C@H](CC(C)C)NC(=O)[C@@H]1Cc2ccccc2N1C(=O)[C@H](Cc1ccccc1)NC(=O)[C@@H](NC(=O)[C@H](CC(N)=O)NC(=O)[C@@H]1C[C@@H](O)CN1C(=O)[C@@H](Cc1ccc(O)cc1)NC(C)=O)[C@@H](C)O)C(=O)N[C@@H](Cc1c[nH]c2ccccc12)C(N)=O [YA-221, Ac-D-Tyr-Hyp-Asn-Thr-Phe-Ind-Leu-Arg(Me)-Trp-NH2] (Ac-[dY][Hyp]NTF[X12]L[Arg(Me)]W-NH2)",9.19
5,"CNC(=N)NCCC[C@H](NC(=O)[C@H](CC(C)C)NC(=O)[C@@H]1CCN1C(=O)[C@H](Cc1ccccc1)NC(=O)[C@@H](NC(=O)[C@H](CC(N)=O)NC(=O)[C@@H]1C[C@@H](O)CN1C(=O)[C@@H](Cc1ccco1)NC(C)=O)[C@@H](C)O)C(=O)N[C@@H](Cc1c[nH]c2ccccc12)C(N)=O [YA-189, Ac-D-2Fua-Hyp-Asn-Thr-Phe-Aze-Leu-Arg(Me)-Trp-NH2] (Ac-[dAla(2-furyl)][Hyp]NTF[Aze]L[Arg(Me)]W-NH2)",8.77

# Continued, values first:
row,pEC50,Structure (SMILES)
1,10.55,"CNC(=N)NCCC[C@H](NC(=O)C(CC(C)C)C(=S)NCNC(=O)[C@H](Cc1ccccc1)NC(=O)[C@@H](NC(=O)[C@H](CC(N)=O)NC(=O)[C@@H]1CC(F)(F)CN1C(=O)[C@@H](Cc1ccc(Cl)cc1Cl)NC(C)=O)[C@@H](C)O)C(=O)N[C@@H](Cc1c[nH]c2ccccc12)C(N)=O (single isomer, unassigned) [YA-255, Ac-[D-Phe(2,4-DiCl)]-DiFluorPro-Asn-Thr-Phe-ψ(NHCS) Gly-Leu-Arg(Me)-Trp-NH2]"
2,7.69,"CNC(=N)NCCC[C@H](NC(=O)[C@H](CC(C)C)NC(=O)C1(NC(=O)[C@H](Cc2ccccc2)NC(=O)[C@@H](NC(=O)[C@H](CC(N)=O)NC(=O)[C@H]2CCCCN2C(=O)[C@@H](Cc2ccc(O)cc2)NC(C)=O)[C@@H](C)O)CCCCC1)C(=O)N[C@@H](Cc1c[nH]c2ccccc12)C(N)=O [YA-229, Ac-(D-Tyr)-(R-Pip)-Asn-Thr-Phe-A6c-Leu-Arg(Me)-Trp-NH2] (Ac-[dY][dPip]NTF[Ac6c]L[Arg(Me)]W-NH2)"
3,7.59,"CNC(=N)NCCC[C@H](NC(=O)[C@H](CC(C)C)NC(=O)C1(NC(=O)[C@H](Cc2ccccc2)NC(=O)[C@@H](NC(=O)[C@H](CC(N)=O)NC(=O)N2CCCN2C(=O)[C@@H](Cc2ccc(Cl)cc2Cl)NC(C)=O)[C@@H](C)O)CCCCC1)C(=O)N[C@@H](Cc1c[nH]c2ccccc12)C(N)=O [YA-200, Ac-D-Phe(2,4-DiCl)-azaPro-Asn-Thr-Phe-A6c-Leu-Arg(Me)-Trp-NH2] (Ac-[dPhe(2,4-Cl2)][azaPro]NTF[Ac6c]L[Arg(Me)]W-NH2)"
4,8.72,"CNC(=N)NCCC[C@H](NC(=O)[C@H](CC(C)C)NC(=O)[C@H]1CCCCN1C(=O)[C@H](Cc1ccccc1)NC(=O)[C@@H](NC(=O)[C@H](CC(N)=O)NC(=O)[C@@H]1C[C@@H](O)CN1C(=O)[C@@H](Cc1ccc(O)cc1)NC(C)=O)[C@@H](C)O)C(=O)N[C@@H](Cc1c[nH]c2ccccc12)C(N)=O [YA-227, Ac-(D-Tyr)-Hyp-Asn-Thr-Phe-(R-Pip)-Leu-Arg(Me)-Trp-NH2] (Ac-[dY][Hyp]NTF[dPip]L[Arg(Me)]W-NH2)"

# Same assay, conditions: NFAT-bla CHO-K1 cells that express human kiss1 receptor (GPR54); FRET; cells cultured with compound for 4 hours; read-out: GPR54 EC50/nM
row,EC50 [nM],Structure (SMILES)
1,3.75,"CC(=O)N[C@H](Cc1ccc(Cl)cc1Cl)C(=O)N1CCCC[C@H]1C(=O)N[C@@H](CC(N)=O)C(=O)N[C@H](C(=O)N[C@@H](Cc1ccccc1)C(=O)NNC(=O)N[C@@H](CC(C)C)C(=O)N[C@@H](Cc1ccc(-n2cccn2)cc1)C(=O)N[C@@H](Cc1c[nH]c2ccccc12)C(N)=O)[C@@H](C)O [YA-242, Ac-[D-Phe(2,4-diCl)]—(S-Pip)-Asn-Thr-Phe-azaGly-Leu-Phe(4-Pyrazol)-Trp-NH2] (Ac-[dPhe(2,4-Cl2)][Pip]NTF[azaGly]L[X6]W-NH2)"

# Same assay, conditions: human kiss1 receptor (GPR54), NFAT-bla CHO-K1 cells, FRET; preliminary data; method of effect Embodiment 1; read-out: Preliminary measurement data (GPR54) EC50
row,pEC50,Structure (SMILES)
1,8.43,"CC(=O)N[C@H](Cc1ccc(Cl)cc1Cl)C(=O)N1CCCC[C@H]1C(=O)N[C@@H](CC(N)=O)C(=O)N[C@H](C(=O)N[C@@H](Cc1ccccc1)C(=O)NNC(=O)N[C@@H](CC(C)C)C(=O)N[C@@H](Cc1ccc(-n2cccn2)cc1)C(=O)N[C@@H](Cc1c[nH]c2ccccc12)C(N)=O)[C@@H](C)O [YA-242, Ac-[D-Phe(2,4-diCl)]—(S-Pip)-Asn-Thr-Phe-azaGly-Leu-Phe(4-Pyrazol)-Trp-NH2] (Ac-[dPhe(2,4-Cl2)][Pip]NTF[azaGly]L[X6]W-NH2)"
